Experimental data as given in patent US20210308182A1, “REGULATORY T CELL EPITOPES” (EpiVax Inc., priority 2020, published 2021).

Experiments:
[1] = test system: CD4+ effector T cells; type: cell-based, human
[2] = test system: human DR molecules; conditions: cited from earlier work
[3] = test system: T cells of PBMCs from lupus patients; conditions: randomly selected lupus patients; cited from earlier work

Sequence | suppression of activated effector CD4+ T cells (CD4+/CD25-high/FoxP3-intermediate) reacting to Tetanus Toxoid [1] | suppression of proliferation of CD4+ effector T cells (CFSE) [1] | binding to soluble HLA class II molecules [2] | lupus patients whose PBMCs contain T cells that proliferate in response to the peptide [3] [%]
KTLYLQMNSLRAEDTAKH (listed as Homo sapiens) [SEQ ID NO: 7] | strongly suppressed | Suppressed | – | –
RIHMVYSKRSGKPRGYAFIEY (listed as Homo sapiens) [peptide 131-151] | – | – | binds to a large panel of human DR molecules | 40
